Experimental data taken from ChEMBL document CHEMBL1201862, “PubChem BioAssay data set” (2004).
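Cultured in 96-well plates, cells were exposed to test compound for 48 hours across five concentrations. At the GI50, growth is halved.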 Activity calls are given as the source filed them. No stated cut-off is given here; in the data, active = GI50 up to about 1.1 µM and inactive = higher.

What was measured:
Assay in all cases: NCI anticancer screen, dose series, 48 h
HOP-62 = system: HOP-62
DU-145 = system: DU-145
CAKI-1 = system: CAKI-1
PC-3 = system: PC-3
MDA-MB-435 = system: MDA-MB-435
Malme-3M = system: Malme-3M
MDA-MB-231 = system: MDA-MB-231
SK-MEL-28 = system: SK-MEL-28
MCF7 = system: MCF7
SW-620 = system: SW-620
OVCAR-8 = system: OVCAR-8
SK-MEL-2 = system: SK-MEL-2
UACC-257 = system: UACC-257
MDA-N = system: MDA-N
NCI-H522 = system: NCI-H522
ACHN = system: ACHN
KM12 = system: KM12
UACC-62 = system: UACC-62
BT-549 = system: BT-549
COLO 205 = system: COLO 205

Structure (SMILES) | GI50 (HOP-62) | GI50 (DU-145) | GI50 (CAKI-1) | GI50 (PC-3) | GI50 (MDA-MB-435) | GI50 (Malme-3M) | GI50 (MDA-MB-231) | GI50 (SK-MEL-28) | GI50 (MCF7) | GI50 (SW-620) | GI50 (OVCAR-8) | GI50 (SK-MEL-2) | GI50 (UACC-257) | GI50 (MDA-N) | GI50 (NCI-H522) | GI50 (ACHN) | GI50 (KM12) | GI50 (UACC-62) | GI50 (BT-549) | GI50 (COLO 205)
Cc1ccc(Nc2n[nH]c(NS(=O)(=O)c3cc(C)c(Cl)cc3S)n2)cc1 | > 100 µM (inactive) | > 100 µM (inactive) | > 100 µM (inactive) | > 100 µM (inactive) | > 100 µM (inactive) | > 100 µM (inactive) | > 100 µM (inactive) | > 100 µM (inactive) | > 100 µM (inactive) | > 100 µM (inactive) | > 100 µM (inactive) | > 100 µM (inactive) | > 100 µM (inactive) | > 100 µM (inactive) | > 100 µM (inactive) | > 100 µM (inactive) | > 100 µM (inactive) | > 100 µM (inactive) | > 100 µM (inactive) | > 100 µM (inactive)
CC1(C)Oc2ccccc2OC1O (stereo not given) | > 100 µM (inactive) | > 100 µM (inactive) | > 100 µM (inactive) | > 100 µM (inactive) | > 100 µM (inactive) | > 100 µM (inactive) | > 100 µM (inactive) | > 100 µM (inactive) | > 100 µM (inactive) | > 100 µM (inactive) | > 100 µM (inactive) | > 100 µM (inactive) | > 100 µM (inactive) | > 100 µM (inactive) | > 100 µM (inactive) | > 100 µM (inactive) | > 100 µM (inactive) | > 100 µM (inactive) | > 100 µM (inactive) | > 100 µM (inactive)
COC1=C(Br)[C@H](O)[C@@]2(C=C1Br)CC(C(=O)NCCCOc1c(Br)cc(C(O)CNC(C)=O)cc1Br)=NO2 (stereo not given in full) [APLYSINAMISINE III] | > 10 µM (inactive) | > 10 µM (inactive) | > 10 µM (inactive) | > 10 µM (inactive) | 2.18 µM (inactive) | 6.03 µM (inactive) | > 10 µM (inactive) | > 10 µM (inactive) | 6.18 µM (inactive) | > 10 µM (inactive) | > 10 µM (inactive) | 8.79 µM (inactive) | > 10 µM (inactive) | 2.11 µM (inactive) | 4.17 µM (inactive) | > 10 µM (inactive) | > 10 µM (inactive) | > 10 µM (inactive) | 2.79 µM (inactive) | > 10 µM (inactive)
CC(=O)NCCCCN(CCCNC(C)=O)C(=O)OCc1ccccc1 | > 100 µM (inactive) | > 100 µM (inactive) | > 100 µM (inactive) | > 100 µM (inactive) | > 100 µM (inactive) | > 100 µM (inactive) | > 100 µM (inactive) | > 100 µM (inactive) | > 100 µM (inactive) | > 100 µM (inactive) | > 100 µM (inactive) | > 100 µM (inactive) | > 100 µM (inactive) | > 100 µM (inactive) | > 100 µM (inactive) | > 100 µM (inactive) | > 100 µM (inactive) | > 100 µM (inactive) | > 100 µM (inactive) | > 100 µM (inactive)
O=c1[nH]cc(/C=N\Nc2ccccc2)c(=O)[nH]1 | > 10 µM (inactive) | > 100 µM (inactive) | > 100 µM (inactive) | > 100 µM (inactive) | > 100 µM (inactive) | > 100 µM (inactive) | > 100 µM (inactive) | > 100 µM (inactive) | > 100 µM (inactive) | > 100 µM (inactive) | > 100 µM (inactive) | > 100 µM (inactive) | > 100 µM (inactive) | > 100 µM (inactive) | > 100 µM (inactive) | 68.9 µM (inactive) | > 100 µM (inactive) | 66.7 µM (inactive) | > 100 µM (inactive) | 66.2 µM (inactive)
c1cc2n(n1)CCN2 | 3720 µM (inactive) | 3320 µM (inactive) | 740 µM (inactive) | 1160 µM (inactive) | 3940 µM (inactive) | 3000 µM (inactive) | > 1500 µM (inactive) | 7740 µM (inactive) | 828 µM (inactive) | 3430 µM (inactive) | 875 µM (inactive) | 6460 µM (inactive) | 5980 µM (inactive) | 4680 µM (inactive) | 2300 µM (inactive) | 151 µM (inactive) | 1810 µM (inactive) | 374 µM (inactive) | 4840 µM (inactive) | 3680 µM (inactive)
O=S1(=O)CCN(c2ccccc2CC(c2c[nH]c3ccccc23)c2c[nH]c3ccccc23)CC1 | 13.6 µM (inactive) | 7.43 µM (inactive) | 9.16 µM (inactive) | 3.64 µM (inactive) | 5.62 µM (inactive) | 11.5 µM (inactive) | 6.92 µM (inactive) | 8.73 µM (inactive) | 3.66 µM (inactive) | 3.92 µM (inactive) | 8.55 µM (inactive) | 6.24 µM (inactive) | 5.15 µM (inactive) | 3.92 µM (inactive) | 4.49 µM (inactive) | 5.04 µM (inactive) | 3.9 µM (inactive) | 8.99 µM (inactive) | 11.9 µM (inactive) | 3.03 µM (inactive)
CCOC(=O)/C(C(N)=O)=C(O)/C(O)=C/C(=O)c1ccc(Cl)cc1 | 21.9 µM (inactive) | 14.8 µM (inactive) | 24.1 µM (inactive) | 19.1 µM (inactive) | 23.1 µM (inactive) | 17.9 µM (inactive) | 17.3 µM (inactive) | 24.8 µM (inactive) | 23.8 µM (inactive) | 20.5 µM (inactive) | 17.7 µM (inactive) | 18.5 µM (inactive) | 16 µM (inactive) | 14.8 µM (inactive) | 16.2 µM (inactive) | 20 µM (inactive) | 17.3 µM (inactive) | 20.6 µM (inactive) | 18 µM (inactive) | 17.8 µM (inactive)
Cc1ccc(-n2cnc3c(N)nc(N)nc32)cc1 | > 100 µM (inactive) | > 100 µM (inactive) | > 100 µM (inactive) | > 100 µM (inactive) | > 100 µM (inactive) | > 100 µM (inactive) | > 100 µM (inactive) | > 100 µM (inactive) | 66.5 µM (inactive) | > 100 µM (inactive) | > 100 µM (inactive) | > 100 µM (inactive) | > 100 µM (inactive) | > 100 µM (inactive) | > 100 µM (inactive) | > 100 µM (inactive) | 42.6 µM (inactive) | 84.1 µM (inactive) | > 100 µM (inactive) | > 100 µM (inactive)
CC1=C(O)C(=O)C=C2C1=CC=C1[C@@]2(C)CC[C@@]2(C)C3C[C@@H](C)C(=O)[C@@H](O)[C@]3(C)CC[C@]12C (stereo not given in full) | 6.38 µM (inactive) | 1.79 µM (inactive) | 1.47 µM (inactive) | 2.02 µM (inactive) | 2.24 µM (inactive) | 1.97 µM (inactive) | 2 µM (inactive) | 1.95 µM (inactive) | 2.77 µM (inactive) | 1.24 µM (inactive) | 2.39 µM (inactive) | 5.05 µM (inactive) | 2.83 µM (inactive) | 1.69 µM (inactive) | 1.05 µM (active) | 1.7 µM (inactive) | 5.86 µM (inactive) | 1.79 µM (inactive) | 1.75 µM (inactive) | 1.71 µM (inactive)
COc1ccc(/C=C(\C#N)c2nc(-c3cc4ccccc4oc3=O)cs2)cc1 | 15.2 µM (inactive) | 65.2 µM (inactive) | 76 µM (inactive) | 47.8 µM (inactive) | 37.8 µM (inactive) | 20.1 µM (inactive) | 14.8 µM (inactive) | 27.5 µM (inactive) | 55.7 µM (inactive) | 19.7 µM (inactive) | 18.1 µM (inactive) | 33.3 µM (inactive) | 31.8 µM (inactive) | 44.5 µM (inactive) | 19.4 µM (inactive) | 19 µM (inactive) | 24.3 µM (inactive) | 22.7 µM (inactive) | 14.2 µM (inactive) | 50.6 µM (inactive)
Cc1ccc(S(=O)(=O)NN=C2CCCCCCCCCCC2)cc1 | > 100 µM (inactive) | > 100 µM (inactive) | > 100 µM (inactive) | > 100 µM (inactive) | > 100 µM (inactive) | > 100 µM (inactive) | > 100 µM (inactive) | > 100 µM (inactive) | > 100 µM (inactive) | > 100 µM (inactive) | > 100 µM (inactive) | > 100 µM (inactive) | > 100 µM (inactive) | > 100 µM (inactive) | > 100 µM (inactive) | > 100 µM (inactive) | > 100 µM (inactive) | > 100 µM (inactive) | > 100 µM (inactive) | > 100 µM (inactive)
OCCOCCN1CCN(c2nc(N3CCCC3)c3nc(Cl)c(NCc4ccccc4)nc3n2)CC1 | 12.6 µM (inactive) | 11.9 µM (inactive) | 16 µM (inactive) | 13.9 µM (inactive) | 11.7 µM (inactive) | 15.8 µM (inactive) | 16.9 µM (inactive) | 14.4 µM (inactive) | 13.9 µM (inactive) | 17.7 µM (inactive) | 17.4 µM (inactive) | 17.5 µM (inactive) | 14.1 µM (inactive) | 10.3 µM (inactive) | 15.4 µM (inactive) | 14 µM (inactive) | 10.1 µM (inactive) | 14 µM (inactive) | 15.3 µM (inactive) | 7.35 µM (inactive)
Cc1n[nH]c(C(F)(F)F)c1/N=N/N(C)C | 10 µM (inactive) | 7.69 µM (inactive) | 1.64 µM (inactive) | 11.1 µM (inactive) | 14.5 µM (inactive) | 16.6 µM (inactive) | 11.8 µM (inactive) | 17.9 µM (inactive) | 3.5 µM (inactive) | > 100 µM (inactive) | 11.1 µM (inactive) | 17.2 µM (inactive) | 14.7 µM (inactive) | > 100 µM (inactive) | 1.37 µM (inactive) | 4.72 µM (inactive) | 7.57 µM (inactive) | 6.81 µM (inactive) | 11.7 µM (inactive) | 2.98 µM (inactive)
